Assay results taken from publication PMC6579712 (Xenobiotica; the fate of foreign compounds in biological …, 2018).
“Also recorded” adds a separate entry of the source. Read-outs that look alike come from different tables or passages of the source.

Columns and labels:
[1] = system: RT-SHIV; test: 90% inhibitory quotient; parameters: IQ90 in NHP brain tissue, one individual animal: unit not given beside the values; settings: for IQ90 in NHP brain tissue, one individual animal: the single animal above 1
[2] = ARV concentrations in brain tissue and plasma by LC-MS/MS, hu-HSC-RAG mice; settings: p=0.29
[3] = in vivo
[4] = system: RT-SHIV; test: IC90 against the RT-SHIV strain of virus; type: cell-based
[5] = in vivo; cited from earlier work
[6] = in vitro; type: in vitro ADME, rhesus macaques; settings: rhesus macaque, frontal cortex brain tissue homogenate
[7] = no reference given; cited from earlier work
[8] = cited from earlier work
[9] = in vivo; cited from earlier work; remark: listed apart in the source
[10] = system: HIV; settings: target value used for colocalization; cited from earlier work
[11] = ARV concentrations in brain tissue, CSF and plasma by LC-MS/MS, NHPs
[12] = ARV concentrations in brain tissue and plasma by LC-MS/MS, BLT mice; settings: BLT vs hu-HSC-RAG

Compound: CC(Cn1cnc2c(N)ncnc21)OCP(=O)(O)OP(=O)(O)OP(=O)(O)O (stereo in doubt) [TFV-dp, tenofovir diphosphate]
- IQ90 in NHP brain tissue, one individual animal [1]: 1.1
- fold higher median TFV-dp brain concentration in hu-HSC-RAG vs BLT mice [2]: 10 fold
- TFV-dp concentration range in all brain tissue samples [3]: 851 to 179,000 fmol/g of tissue

Compound: COC(=O)N[C@H](C(=O)N[C@@H](Cc1ccccc1)[C@@H](O)CN(Cc1ccc(-c2ccccn2)cc1)NC(=O)[C@@H](NC(=O)OC)C(C)(C)C)C(C)(C)C [ATZ, atazanavir]
- fold higher IC90 against RT-SHIV than against clinical HIV-1 isolates [4]: 1,000 fold
- CSF concentrations [5]: 5 to 21 ng/mL
- fraction unbound at 18 h [6]: 0.76
- BCS class [7]: class I or class II

Compound: O=C1Nc2ccc(Cl)cc2[C@@](C#CC2CC2)(C(F)(F)F)O1 [EFV, efavirenz]
- blood plasma protein binding ([8]; ref Boffito et al. 2003): 99.5%
- median brain tissue concentration, human post-mortem [9]: 900 ng/g
- IC50 target [10]: 2 ng/g
- total brain tissue concentration, median [range] ([11]; NHP, LC-MS/MS, four brain regions combined): 775 ng/g
- BCS class [7]: class I or class II

Compound: Nc1nc(=O)n([C@@H]2CS[C@H](CO)O2)cc1F [FTC, emtricitabine]
- protein binding in plasma ([8]; plasma): < 10%
- fold higher brain tissue penetration in BLT mice compared to hu-HSC-RAG mice [12]: 5 fold
- fold lower CSF concentration in NHPs than human concentrations ([11]; compared with ref Calcagno (2014)): approximately 3 fold

Compound: Nc1nc(=O)n([C@@H]2CS[C@H](COP(=O)(O)OP(=O)(O)OP(=O)(O)O)O2)cc1F [FTC-tp, emtricitabine triphosphate]
- FTC-tp in brain tissue (all three animal models): not detected; also recorded: not quantifiable

Compound: Cc1nnc(C(=O)NC(C)(C)c2nc(C(=O)NCc3ccc(F)cc3)c(O)c(=O)n2C)o1 [RAL, raltegravir]
- IQ90 from total brain tissue concentrations ([1]; six of the remaining seven animals): < 1
- IQ90 from unbound brain tissue concentration ([1]; the one animal where unbound concentration could be measured): 0.07
- IQ90 in NHP brain tissue, one individual animal [1]: 1.1
- Kp at 1 day after the last of ten days of dosing (both, hu-HSC-Rag and BLT (mice), mouse (humanized) and rhesus macaque, in vivo): 0.11 to 0.12

Compound: C[C@H](Cn1cnc2c(N)ncnc21)OCP(=O)(O)O [TFV, tenofovir]
- protein binding in plasma ([8]; no reference given): < 10%
- fold higher brain tissue penetration in BLT mice compared to hu-HSC-RAG mice [12]: 3 fold
- median brain tissue concentration, human post-mortem [9]: 80 ng/g

Compound: maraviroc [MVC]
- fold higher IC90 against RT-SHIV than against clinical HIV-1 isolates [4]: 100 fold
